The values that follow come from patent US20260297679A1, “ASSAYS FOR MONITORING INHIBITION OF RNA HELICASE DHX9” (ACCENT THERAPEUTICS, INC., priority 2023, published 2026).

In one assay the test system is LS411N tumors. Put plainly: Intra-tumoral human circBRIP1 analysis, LS411N xenograft. The format is in vivo, human xenograft in female BALB/c nude mice. The conditions noted are these: 30, 100, 200 and 300 mg/kg BID oral, 21 days, 12 hours post last dose; FIG. 4A. The protocol:
This study was conducted to evaluate pharmacodynamics (PD) and pharmacokinetics (PK) of intra-tumoral circular BRIP1 with efficacy of a DHX9 inhibitor (Compound 1, as shown in Table 1).
In vivo Efficacy Study: Experiments were performed in female BALB/c nude mice (GenPharmatech Co.). Animals were allowed to acclimate for 7 days before the study. The general health of the animals were evaluated by a veterinarian, and complete health checks were performed prior to the study. […] Animals were housed in polycarbonate cage which is the size of 300×180×150 mm^3 and in an environmentally monitored, well-ventilated room maintained at a temperature of (23±3° C.) and a relative humidity of 40% 70%. […]
The LS411N (ATCC; CRL-2159) tumor cell lines were maintained in vitro as monolayer in RPMI 1640 medium supplemented with 10% heat inactivated FBS, at 37° C. in an atmosphere of 5% CO2 in air. The tumor cells were sub-cultured, not exceeding 4-5 passages, and cells growing in an exponential growth phase were harvested and counted for tumor inoculation. […]
Data analysis was performed by using the QuantStudio Thermocycler software to determine threshold Ct values. ΔCt for circBRIP1 or linBRIP1 is calculated by normalizing the target gene Ct to the GAPDH housekeeping gene Ct for each sample. The inhibition activity is calculated by the following formula, whereas: […]

For assay [1], the system named is breast, ovarian, and lung cell lines. Put plainly: circBRIP1 levels in breast, ovarian, and lung cell lines. The class given is cell-based. The protocol:
Cells were plated at pre-determined cell densities in 384-well cell culture plates and incubated overnight in 37° C. at 5% CO2. […] Using TaqMan Multiplex Mastermix and thermal cycle conditions for the Quant Studio Thermocycler, qPCR was carried out as described above to quantify the level of circBRIP1.
Data analysis was performed by using the QuantStudio Thermocycler software to determine threshold Ct values. ΔCt for circBRIP1 is calculated by normalizing the target gene Ct to the GAPDH housekeeping gene Ct for each sample.
The inhibition activity (% Vehicle) is calculated by the following formulas, whereas: […]
An EC50 was then calculated using a 4-parameter logistic nonlinear regression model in Scigilian Analyze or GraphPad Prism, floating both the top and bottom parameters. […]

SMILES strings stand for the structures.

Take `Cc1cccnc1-c1csc(C(=O)Nc2cc(Cl)cc(NS(C)(=O)=O)c2)c1` [Compound 1, N-(3-chloro-5-methanesulfonamidophenyl)-4-(3-methylpyridin-2-yl)thiophene-2-carboxamide]: the “intra-tumoral circBRIP1 induction” value in the assay on LS411N tumors is on record as “Dose-dependent intra-tumoral circBRIP1 induction was observed”. Further, the circBRIP1 levels result in assay [1] is “upregulated in breast, ovarian, and lung cell lines”.
